The source of these data is ChEMBL document CHEMBL1201862, “PubChem BioAssay data set” (2004).

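A five-concentration, 48-hour dose response in 96-well plates underlies each endpoint, interpolated linearly between surrounding concentrations. At the GI50, growth is halved.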 The source made the active and inactive calls. Cut-off read from the data, not from the text of the source: active = GI50 up to about 1.1 µM and inactive = higher. Bounds are passed on as bounds.

Test systems include MOLT-4; NCI-H226; SF-268; OVCAR-4; HCT-15; COLO 205; EKVX; HL-60; OVCAR-3; SNB-19; UACC-257; OVCAR-5; HOP-62; SR; CCRF-CEM; SF-539; Malme-3M.
What all share (assay): DTP human tumour cell line panel, 48 h

Take `c1ccc(-c2sc(-c3ccccc3)c3c2C2CCC3C2)cc1`: the GI50 in the test on MOLT-4 was 52.4 µM (inactive); with NCI-H226, 32.5 µM (inactive); in the test on SF-268, 53.3 µM (inactive); with OVCAR-4 it was > 100 µM (inactive); in the test with HCT-15, 31.6 µM; in the test on COLO 205, 22.9 µM (inactive). Also, the GI50 with EKVX is 42.1 µM (inactive); with HL-60 it was 37.5 µM (inactive); in the test with OVCAR-3, 30.6 µM (inactive); in the test with SNB-19 it was > 100 µM (inactive); with UACC-257, 40.3 µM (inactive); in the test on OVCAR-5, 53.8 µM (inactive). The GI50 in the test on HOP-62 was 38.2 µM (inactive); with SR, 17.4 µM (inactive); in the test on CCRF-CEM, 43.9 µM (inactive); in the test on SF-539, 26 µM (inactive); with Malme-3M, 31.6 µM (inactive).
With `COc1cc(C2C3=C(COC3=O)Oc3cc4c(cc32)OCO4)cc(OC)c1O` (stereo not given), the GI50 was 0.0175 µM (active) in the test with MOLT-4; < 0.0118 µM (active) in the test with NCI-H226; 0.226 µM (active) in the test with SF-268; 8.24 µM (inactive) with OVCAR-4; 0.0126 µM in the test on HCT-15; < 0.0133 µM (active) in the test with COLO 205. Also, the GI50 in the test on EKVX was 0.0207 µM (active); with HL-60, < 0.01 µM (active); with OVCAR-3 it was 0.0127 µM (active); with SNB-19, < 0.0123 µM (active); in the test with OVCAR-5, 0.0236 µM (active); in the test with HOP-62 it was < 0.0135 µM (active). Moreover, the GI50 with SR is < 0.01 µM (active); in the test with CCRF-CEM, 0.0134 µM (active); in the test with SF-539, < 0.01 µM (active); in the test with Malme-3M, < 0.01 µM (active).
In the case of `O=C(c1ccccc1)c1ccc2[nH]c(-c3c(Cl)c(Cl)c(Cl)c(Cl)c3C(=O)N/N=C/c3ccc(Cl)cc3)nc2c1`, the GI50 in the test on MOLT-4 is 18.3 µM (inactive); in the test on NCI-H226, 39.8 µM (inactive); in the test with SF-268 it was 40.7 µM (inactive); in the test with OVCAR-4, 30.3 µM (inactive); in the test with HCT-15 it was 24.2 µM; in the test with COLO 205, 28.1 µM (inactive). The GI50 in the test on EKVX was 23.2 µM (inactive); in the test on HL-60, 4.06 µM (inactive); in the test with OVCAR-3, 17.5 µM (inactive); in the test on SNB-19, 43 µM (inactive); with UACC-257 it was 43.3 µM (inactive); in the test on OVCAR-5, 64.7 µM (inactive). Besides, the GI50 is 31.7 µM (inactive) in the test with HOP-62; 28.2 µM (inactive) in the test on SR; 18.3 µM (inactive) with CCRF-CEM; 64.9 µM (inactive) in the test with SF-539; 37.4 µM (inactive) with Malme-3M.
Consider `CCOC(=O)c1cccc(NC(=O)CBr)c1`, for which the GI50 in the test on MOLT-4 was 0.223 µM (active); in the test with NCI-H226, 0.76 µM (active); with OVCAR-4, 1.53 µM (inactive); with HCT-15, 1.28 µM; with COLO 205, 1.72 µM (inactive); with EKVX it was 1.62 µM (inactive). The GI50 in the test with HL-60 is 1.74 µM (inactive); in the test with OVCAR-3, 1.39 µM (inactive); in the test with SNB-19, 4.4 µM (inactive); in the test on UACC-257, 1.82 µM (inactive); in the test on OVCAR-5, 1.75 µM (inactive); with HOP-62 it was 1.73 µM (inactive). The GI50 in the test with SR was 0.206 µM (active); in the test on CCRF-CEM it was 0.0618 µM (active); in the test on SF-539, 0.984 µM (active); in the test with Malme-3M, 1.91 µM (inactive).
Consider `O=C(O)c1cc(CC2Cc3cc4c(cc3C2=O)CCC4)cc2c1CCC2` (stereo not given), for which the GI50 in the test on MOLT-4 was > 100 µM (inactive); with NCI-H226, > 100 µM (inactive); with SF-268, > 100 µM (inactive); with OVCAR-4, > 100 µM (inactive); with HCT-15 it was 60.7 µM; with COLO 205 it was > 100 µM (inactive). Also, the GI50 is > 100 µM (inactive) in the test on EKVX; > 100 µM (inactive) in the test with HL-60; 94.4 µM (inactive) with OVCAR-3; > 100 µM (inactive) in the test with SNB-19; > 100 µM (inactive) in the test with UACC-257; > 100 µM (inactive) in the test with OVCAR-5. For the same molecule, the GI50 in the test on HOP-62 was > 100 µM (inactive); in the test with SR, 67.1 µM (inactive); with CCRF-CEM, 59.3 µM (inactive); in the test on SF-539 it was > 100 µM (inactive); in the test on Malme-3M, > 100 µM (inactive).
Consider `CC(C)(CO)NC1=C(Cl)C(=O)c2c(O)ccc(O)c2C1=O`, for which the GI50 with MOLT-4 is 0.568 µM (active); in the test with NCI-H226, 2.16 µM (inactive); with SF-268, 2.61 µM (inactive); in the test on OVCAR-4, 1.57 µM (inactive); in the test with HCT-15, 0.557 µM; with COLO 205, 1.22 µM (inactive). Besides, the GI50 in the test with EKVX was 1.87 µM (inactive); in the test with HL-60, 0.233 µM (active); in the test with OVCAR-3 it was 1.55 µM (inactive); with SNB-19, 1.77 µM (inactive); with UACC-257 it was 1.71 µM (inactive); in the test with OVCAR-5, 1.65 µM (inactive). Further, the GI50 in the test with HOP-62 was 1.56 µM (inactive); in the test with SR, 0.267 µM (active); in the test on CCRF-CEM, 0.33 µM (active); with SF-539, 1.39 µM (inactive); with Malme-3M, 1.87 µM (inactive).
As for `COC(=O)c1c2c(cc3c1CC1(C3)Cc3cc4c(c(C(C)=O)c3C1)CCC4)C=CC2` (stereo not given), the GI50 with MOLT-4 is > 31.6 µM (inactive); with NCI-H226, > 31.6 µM (inactive); in the test with SF-268, > 31.6 µM (inactive); with OVCAR-4 it was 24.5 µM (inactive); with HCT-15, 18.3 µM; with COLO 205, > 31.6 µM (inactive). In addition, the GI50 in the test on EKVX was > 31.6 µM (inactive); with HL-60, 16.7 µM (inactive); in the test with OVCAR-3, > 31.6 µM (inactive); with SNB-19, > 31.6 µM (inactive); with UACC-257, > 31.6 µM (inactive); with OVCAR-5 it was > 31.6 µM (inactive). Besides, the GI50 was > 31.6 µM (inactive) in the test with HOP-62; 20.8 µM (inactive) with SR; 20.7 µM (inactive) in the test on CCRF-CEM; > 31.6 µM (inactive) with SF-539; > 10 µM (inactive) in the test with Malme-3M.
Regarding `CCOC(=O)C1(C(=O)OCC)C[C@@H](C)[C@@H](O)C1`, the GI50 with MOLT-4 was > 100 µM (inactive); in the test with NCI-H226, > 100 µM (inactive); in the test on SF-268, > 100 µM (inactive); in the test with OVCAR-4, > 100 µM (inactive); in the test on HCT-15, above 100 µM; in the test with COLO 205, > 100 µM (inactive). For the same molecule, the GI50 is > 100 µM (inactive) in the test on EKVX; 89.9 µM (inactive) with HL-60; > 100 µM (inactive) in the test with OVCAR-3; > 100 µM (inactive) in the test with SNB-19; > 100 µM (inactive) with UACC-257; > 100 µM (inactive) in the test with OVCAR-5. Further, the GI50 in the test on HOP-62 was > 100 µM (inactive); in the test with SR it was > 100 µM (inactive); in the test on CCRF-CEM, > 100 µM (inactive); with SF-539, > 100 µM (inactive); in the test on Malme-3M it was 72.1 µM (inactive).
For the molecule `Cc1ccc2c(=O)[nH]sc2c1`, the GI50 in the test on MOLT-4 was 3.98 µM (inactive); with NCI-H226 it was 19.7 µM (inactive); in the test on SF-268, 19.9 µM (inactive); in the test on OVCAR-4 it was 27.9 µM (inactive); in the test with HCT-15, 14.6 µM; in the test with COLO 205 it was 3.82 µM (inactive). For the same molecule, the GI50 is 14.9 µM (inactive) in the test with EKVX; 13.1 µM (inactive) in the test on HL-60; 17.8 µM (inactive) with OVCAR-3; 39.4 µM (inactive) in the test with SNB-19; 18.4 µM (inactive) in the test on UACC-257; 94 µM (inactive) in the test on OVCAR-5. The GI50 in the test on HOP-62 is 19.5 µM (inactive); with SR it was 3.69 µM (inactive); in the test with CCRF-CEM, 3.26 µM (inactive); with SF-539 it was 12.6 µM (inactive); with Malme-3M, 20.4 µM (inactive).
`Oc1cc(-c2cccc(Cl)c2)nc2ncccc12`: the GI50 was 0.0545 µM (active) in the test with MOLT-4; 0.378 µM (active) in the test with NCI-H226; 5.53 µM (inactive) in the test on SF-268; > 66.7 µM (inactive) in the test on OVCAR-4; 0.0489 µM with HCT-15; 0.0782 µM (active) with COLO 205. Moreover, the GI50 in the test with HL-60 is 0.0142 µM (active); with OVCAR-3, 0.0466 µM (active); with SNB-19, 0.192 µM (active); in the test with UACC-257 it was 84.3 µM (inactive); with HOP-62, 0.253 µM (active); with SR, 0.0378 µM (active). The GI50 in the test with CCRF-CEM is 0.0689 µM (active); in the test on SF-539, 0.0532 µM (active); with Malme-3M it was 0.139 µM (active).
For `NCCCCNCCCN1CC1`, the GI50 in the test with MOLT-4 is 1 µM (active); in the test on NCI-H226 it was 2.67 µM (inactive); in the test on SF-268, 0.957 µM (active); in the test on OVCAR-4 it was 0.205 µM (active); in the test with HCT-15 it was 4.91 µM; with COLO 205, 0.871 µM (active). In addition, the GI50 in the test on EKVX was 3.15 µM (inactive); in the test on HL-60, 0.436 µM (active); in the test on OVCAR-3, 0.619 µM (active); in the test on SNB-19, 1.86 µM (inactive); with UACC-257, 5.06 µM (inactive); with OVCAR-5 it was 5.27 µM (inactive). Moreover, the GI50 is 0.92 µM (active) in the test with HOP-62; 2.29 µM (inactive) with SR; 0.951 µM (active) with CCRF-CEM; 0.628 µM (active) in the test with SF-539; 1.77 µM (inactive) with Malme-3M.
Take `CC1=CC(=O)[C@@H](O)[C@]2(C)[C@H]3[C@@]4(O)OC[C@@]35[C@@H](C[C@@H]12)OC(=O)C(OC(=O)CC1=CCCC1)[C@H]5[C@@H](C)[C@H]4O` (stereo not given in full): the GI50 in the test with MOLT-4 is < 0.0145 µM (active); in the test on NCI-H226 it was 0.0167 µM (active); in the test with SF-268, 0.0345 µM (active); with OVCAR-4, 0.0527 µM (active); in the test with HCT-15, 0.0593 µM; in the test on COLO 205, 0.24 µM (active). Besides, the GI50 in the test on EKVX was 0.224 µM (active); with HL-60, < 0.0168 µM (active); with OVCAR-3, 0.0239 µM (active); in the test with SNB-19 it was 0.0344 µM (active); with UACC-257 it was 0.022 µM (active); in the test with OVCAR-5 it was 0.105 µM (active). The GI50 in the test on HOP-62 was 0.024 µM (active); in the test on SR, 0.0168 µM (active); in the test with CCRF-CEM it was 0.0197 µM (active); in the test with SF-539, 0.0169 µM (active); in the test on Malme-3M it was 0.0164 µM (active).

A word on the GI50: it is the concentration that inhibits growth by half.
